The results in this text go back to ChEMBL document CHEMBL5335800, “Focused Screening Identifies Different Sensitivities of Human TET Oxygenases to the Oncometabolite 2-Hydroxyglutarate” (J Med Chem, 2024).

Data set [1] addresses T1, Methylcytosine dioxygenase TET1 (Homo sapiens, UniProt Q8NFU7). Nature of the data set: Inhibition of N-terminal 3xFlag-tagged human TET1 catalytic domain (E1418 to V2136 residues) expressed in Sf9 cells using 5-methylcytosine as substrate preincubated for 10 mins followed by DNA-cofactor addition and measured after 30 mins by Alphascreen assay. (Alpha assays give light when donor and acceptor beads are brought close together.)

The target of data set [2] is T2, Methylcytosine dioxygenase TET3 (Homo sapiens, UniProt O43151). In words: Inhibition of human TET3 catalytic domain (E824 to I1795 residues) expressed in mammalian cells using 5-methylcytosine as substrate preincubated for 10 mins followed by DNA-cofactor addition and measured after 10 mins by Alphascreen assay.
For data set [3], the species on record is Homo sapiens. In words: Inhibition of N-terminal His-tagged recombinant human TET2 catalytic domain LCIdel mutant (D1129 to G1936 residues with Y1481 to N1843 replaced by a 3 x GGGGS linker) expressed in Escherichia coli BL21 (DE3) using 5-methylcytosine as substrate at 100 uM preincubated for 10 mins followed by DNA-cofactor addition and measured after 10 mins by Alphascreen assay relative to control. Conditions: time 20.0 min.

Data set [4] concerns U2OS. It counts as toxicity, cell-based. Conditions: human.
Data set [5] concerns the target T1, Methylcytosine dioxygenase TET1. It counts as cell-based. Conditions: U2OS, dose 3.0 mM.
Data set [6] shares this target. In words: Inhibition of N-terminal 3xFlag-tagged human TET1 catalytic domain (E1418 to V2136 residues) expressed in Sf9 cells using 5-methylcytosine as substrate at 100 uM preincubated for 10 mins followed by DNA-cofactor addition and measured after 30 mins by Alphascreen assay relative to control. Conditions: time 40.0 min.
For data set [7], the target named is T2, Methylcytosine dioxygenase TET3. Nature of the data set: Inhibition of human TET3 catalytic domain (E824 to I1795 residues) expressed in mammalian cells using 5-methylcytosine as substrate at 100 uM preincubated for 10 mins followed by DNA-cofactor addition and measured after 10 mins by Alphascreen assay relative to control. Conditions: time 20.0 min.
The target of data set [8] is T3, Methylcytosine dioxygenase TET2 (Homo sapiens, UniProt Q6N021). Conditions: sf9.
For data set [9], the target named is T3, Methylcytosine dioxygenase TET2. Nature of the data set: biochemical.
For data set [10], the species on record is Homo sapiens. Conditions: dose 100.0 µM, time 20.0 min.
Data set [11] addresses T1, Methylcytosine dioxygenase TET1.
Data set [12] shares this target. It counts as cell-based. Conditions: U2OS, dose 1.0 mM.
For data set [13], the species on record is Homo sapiens. Nature of the data set: Competitive inhibition of N-terminal His-tagged recombinant human TET2 catalytic domain LCIdel mutant (D1129 to G1936 residues with Y1481 to N1843 replaced by a 3 x GGGGS linker) expressed in Escherichia coli BL21 (DE3) using 5-methylcytosine as substrate preincubated for 10 mins followed by DNA-cofactor addition in presence of 2-OG and measured after 10 mins by Alphascreen assay. Conditions: time 20.0 min.

Data set [14] addresses T1, Methylcytosine dioxygenase TET1. It counts as cell-based. Conditions: U2OS, dose > 33.0 µM.
For data set [15], the system named is U2OS. Type of data set: toxicity, cell-based. Conditions: human. This is another data set of the same source.

Activity calls are given as the source filed them. No cut-off for these calls is given here.

T2 sequence (O43151 whole entry, the tested form may be a part): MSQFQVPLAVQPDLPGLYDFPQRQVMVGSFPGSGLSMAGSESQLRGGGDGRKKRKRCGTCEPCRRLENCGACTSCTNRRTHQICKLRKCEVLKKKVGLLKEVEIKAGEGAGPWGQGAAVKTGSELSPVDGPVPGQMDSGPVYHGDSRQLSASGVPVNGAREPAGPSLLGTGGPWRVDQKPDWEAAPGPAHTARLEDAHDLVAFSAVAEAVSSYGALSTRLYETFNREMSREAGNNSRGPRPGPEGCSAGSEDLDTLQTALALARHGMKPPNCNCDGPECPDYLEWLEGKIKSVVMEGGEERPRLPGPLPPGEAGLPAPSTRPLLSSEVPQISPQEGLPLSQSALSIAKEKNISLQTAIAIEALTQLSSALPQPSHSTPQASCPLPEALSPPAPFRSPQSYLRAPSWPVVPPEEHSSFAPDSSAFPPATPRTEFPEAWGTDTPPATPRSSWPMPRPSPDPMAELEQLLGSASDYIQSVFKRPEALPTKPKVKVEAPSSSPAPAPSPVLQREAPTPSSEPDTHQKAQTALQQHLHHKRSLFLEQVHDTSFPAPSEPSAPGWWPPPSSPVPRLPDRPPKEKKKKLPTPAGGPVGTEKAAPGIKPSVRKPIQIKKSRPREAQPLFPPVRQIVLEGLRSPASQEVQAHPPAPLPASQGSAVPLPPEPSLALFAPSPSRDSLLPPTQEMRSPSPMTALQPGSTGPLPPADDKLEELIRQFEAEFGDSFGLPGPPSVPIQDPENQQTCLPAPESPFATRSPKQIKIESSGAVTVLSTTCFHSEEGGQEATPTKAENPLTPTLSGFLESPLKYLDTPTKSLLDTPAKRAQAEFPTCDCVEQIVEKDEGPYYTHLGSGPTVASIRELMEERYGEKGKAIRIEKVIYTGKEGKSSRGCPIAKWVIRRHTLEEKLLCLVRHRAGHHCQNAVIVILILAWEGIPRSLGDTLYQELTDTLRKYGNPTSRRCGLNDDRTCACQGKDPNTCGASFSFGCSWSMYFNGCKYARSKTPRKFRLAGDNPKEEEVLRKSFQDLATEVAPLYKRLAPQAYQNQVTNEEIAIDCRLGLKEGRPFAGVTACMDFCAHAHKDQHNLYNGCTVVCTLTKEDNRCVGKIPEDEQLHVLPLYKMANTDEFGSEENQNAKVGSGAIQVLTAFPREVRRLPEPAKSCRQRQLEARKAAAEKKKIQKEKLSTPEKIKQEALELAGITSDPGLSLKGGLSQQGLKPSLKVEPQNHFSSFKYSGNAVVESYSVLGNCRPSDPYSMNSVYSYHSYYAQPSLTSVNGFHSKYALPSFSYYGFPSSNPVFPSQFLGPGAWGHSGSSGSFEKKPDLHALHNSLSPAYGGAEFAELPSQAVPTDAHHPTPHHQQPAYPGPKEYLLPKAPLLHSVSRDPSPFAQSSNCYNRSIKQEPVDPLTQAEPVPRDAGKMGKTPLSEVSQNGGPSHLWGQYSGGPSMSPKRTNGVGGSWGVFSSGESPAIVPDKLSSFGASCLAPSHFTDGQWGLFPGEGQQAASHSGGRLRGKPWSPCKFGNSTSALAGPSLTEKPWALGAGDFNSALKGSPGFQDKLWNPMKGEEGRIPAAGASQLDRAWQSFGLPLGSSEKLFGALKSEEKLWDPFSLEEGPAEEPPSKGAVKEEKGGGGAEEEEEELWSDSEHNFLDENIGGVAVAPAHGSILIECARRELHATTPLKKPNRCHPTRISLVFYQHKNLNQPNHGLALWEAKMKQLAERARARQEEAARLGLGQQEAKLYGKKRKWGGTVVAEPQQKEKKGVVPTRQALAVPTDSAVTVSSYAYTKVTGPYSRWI
T1 sequence (Q8NFU7 whole entry, the tested form may be a part): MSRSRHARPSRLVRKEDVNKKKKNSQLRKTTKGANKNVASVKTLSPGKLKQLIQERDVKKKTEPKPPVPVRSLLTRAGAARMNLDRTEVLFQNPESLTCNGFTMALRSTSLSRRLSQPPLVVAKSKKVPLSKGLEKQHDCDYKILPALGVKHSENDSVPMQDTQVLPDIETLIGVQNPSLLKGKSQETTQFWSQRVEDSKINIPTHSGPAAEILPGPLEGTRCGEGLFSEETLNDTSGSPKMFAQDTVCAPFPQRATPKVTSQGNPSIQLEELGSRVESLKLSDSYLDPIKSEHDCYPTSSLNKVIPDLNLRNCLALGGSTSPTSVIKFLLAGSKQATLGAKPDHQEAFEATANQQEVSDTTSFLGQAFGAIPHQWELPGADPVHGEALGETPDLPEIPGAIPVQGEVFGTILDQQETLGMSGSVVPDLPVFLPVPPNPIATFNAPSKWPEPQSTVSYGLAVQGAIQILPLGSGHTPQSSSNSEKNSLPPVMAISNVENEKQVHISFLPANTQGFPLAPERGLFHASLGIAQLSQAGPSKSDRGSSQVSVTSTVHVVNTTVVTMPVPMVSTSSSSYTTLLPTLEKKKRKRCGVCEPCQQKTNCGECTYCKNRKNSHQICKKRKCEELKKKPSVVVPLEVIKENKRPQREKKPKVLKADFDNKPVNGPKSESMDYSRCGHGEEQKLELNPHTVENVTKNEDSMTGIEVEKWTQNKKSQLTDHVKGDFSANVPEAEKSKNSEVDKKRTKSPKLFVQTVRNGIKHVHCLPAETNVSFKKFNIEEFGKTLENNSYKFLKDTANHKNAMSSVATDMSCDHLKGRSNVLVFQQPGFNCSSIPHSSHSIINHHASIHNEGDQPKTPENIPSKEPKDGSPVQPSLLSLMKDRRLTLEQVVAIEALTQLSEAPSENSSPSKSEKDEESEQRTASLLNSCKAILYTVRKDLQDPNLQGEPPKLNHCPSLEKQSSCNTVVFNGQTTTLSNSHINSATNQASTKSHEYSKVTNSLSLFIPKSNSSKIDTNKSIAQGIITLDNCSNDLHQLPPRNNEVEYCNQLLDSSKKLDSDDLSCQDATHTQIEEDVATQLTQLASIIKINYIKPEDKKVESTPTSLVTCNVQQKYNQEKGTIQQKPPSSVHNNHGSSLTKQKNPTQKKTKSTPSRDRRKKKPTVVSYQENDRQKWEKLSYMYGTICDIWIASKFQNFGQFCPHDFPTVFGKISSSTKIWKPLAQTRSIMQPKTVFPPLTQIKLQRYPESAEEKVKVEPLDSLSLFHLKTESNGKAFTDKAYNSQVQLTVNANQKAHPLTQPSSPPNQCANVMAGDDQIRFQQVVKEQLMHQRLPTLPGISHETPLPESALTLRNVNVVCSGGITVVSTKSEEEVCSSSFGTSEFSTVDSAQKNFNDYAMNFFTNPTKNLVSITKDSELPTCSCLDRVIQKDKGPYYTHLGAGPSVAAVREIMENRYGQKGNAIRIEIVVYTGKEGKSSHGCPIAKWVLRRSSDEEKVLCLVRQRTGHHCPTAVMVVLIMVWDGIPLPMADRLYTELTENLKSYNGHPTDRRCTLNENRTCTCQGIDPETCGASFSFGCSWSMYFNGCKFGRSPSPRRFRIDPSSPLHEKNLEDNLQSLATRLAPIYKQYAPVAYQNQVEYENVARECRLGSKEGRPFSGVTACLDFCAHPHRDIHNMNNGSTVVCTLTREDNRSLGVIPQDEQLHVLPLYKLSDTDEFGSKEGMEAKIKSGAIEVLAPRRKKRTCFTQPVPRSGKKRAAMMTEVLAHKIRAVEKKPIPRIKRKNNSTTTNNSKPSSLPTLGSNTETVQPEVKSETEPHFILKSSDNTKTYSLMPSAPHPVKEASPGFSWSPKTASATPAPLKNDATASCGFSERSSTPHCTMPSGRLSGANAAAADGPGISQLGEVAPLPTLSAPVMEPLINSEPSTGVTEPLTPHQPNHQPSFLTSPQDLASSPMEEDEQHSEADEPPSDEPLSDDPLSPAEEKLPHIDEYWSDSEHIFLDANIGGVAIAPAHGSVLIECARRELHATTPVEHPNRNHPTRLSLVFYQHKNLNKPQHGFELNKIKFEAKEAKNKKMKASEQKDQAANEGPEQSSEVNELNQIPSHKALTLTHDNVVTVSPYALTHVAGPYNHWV

Regarding `Cc1nc(C(=O)NCC(=O)O)c(O)c2ccc(Oc3ccccc3)cc12` [ROXADUSTAT], the IC50 in [1] (read-out: pIC50 (converted)) is at least 100 µM; in data set [1] (sf9, read-out: IC50) it was at least 100 µM; in [2] (read-out: IC50), at least 100 µM; in [2] (read-out: pIC50 (converted)), at least 100 µM. Further, the inhibition (usually how much of the control response was suppressed) in the data set listed under Homo sapiens [3] is under 20%.
Regarding `CCCCCCCCOC(=O)[C@@H](O)CCC(=O)O`, the pCC50 – broadly, the negative decadic logarithm of the CC50, by convention in mol/L – in the data set on U2OS [4] is reported as under 2.7. In [5], the inhibition entry was “inactive”.
`O=C(O)CNC(=O)c1c(O)n(C2CCCCC2)c(=O)n(C2CCCCC2)c1=O`: the IC50 in data set [1] (read-out: pIC50 (converted)) is at least 100 µM; in data set [1] (sf9, read-out: IC50), at least 100 µM; in data set [2] (read-out: IC50) it was at least 100 µM; in data set [2] (read-out: pIC50 (converted)), at least 100 µM; in data set [8] it was at least 100 µM; in data set [9], at least 100 µM. For the same compound, the inhibition in data set [6] was determined as 63%; in data set [7] it was 36%.
For `O=C(O)CNC(=O)c1nc(Cl)c2ccccc2c1O`, the IC50 in [1] (read-out: pIC50 (converted)) is at least 100 µM; in data set [1] (sf9, read-out: IC50), at least 100 µM; in data set [2] (read-out: IC50), at least 100 µM; in data set [2] (read-out: pIC50 (converted)) it was at least 100 µM.
As to `Nc1nc(=O)n([C@H]2C[C@H](O)[C@@H](CO)O2)cc1CO`, the inhibition in the data set filed under Homo sapiens [10] is under 20%.
`O=C(O)CNC(=O)c1c(O)c2ccccc2n(Cc2ccccc2)c1=O`: the IC50 is at least 100 µM in data set [1] (read-out: pIC50 (converted)); at least 100 µM in [1] (sf9, read-out: IC50); at least 100 µM in data set [2] (read-out: IC50); at least 100 µM in data set [2] (read-out: pIC50 (converted)). In addition, the inhibition in data set [7] is under 20%.
Turning to `O=C(O)CCNc1cc(N2CCc3ccccc3CC2)nc(-c2ccccn2)n1`, the IC50 in data set [1] (read-out: IC50) was over 100 µM. Further, the inhibition in the data set listed under Homo sapiens [3] was under 20%.
Regarding `O=c1c(-n2ccnn2)c[nH]n1-c1cc(N2CCOCC2)ncn1` [MOLIDUSTAT], the EC50 (commonly the concentration that produces a half-maximal response) in data set [11] is about 100 µM.
In the case of `CCN(CCN(C)C)C(=O)CNCc1cc(C(N)=O)ccn1`, the IC50 in data set [1] (read-out: IC50) and in data set [2] (read-out: IC50) was over 100 µM in each case. The inhibition (in [6]; in [7]; in the data set listed under Homo sapiens [10]) was under 20% each time.
`CC(C)c1c(-c2ccccc2)[nH]c2c(C#N)cnn2c1=O`: the IC50 in [1] (read-out: IC50) and in data set [2] (read-out: IC50) was over 100 µM throughout. The inhibition (in [6]; in [7]; in the data set filed under Homo sapiens [3]; in the data set listed under Homo sapiens [10]) was under 20% in each case.
Take `CN(c1ccccc1)c1ccc2c(c1)CCC[C@H]2CNc1cnccc1C(=O)O`: the IC50 in data set [1] (read-out: IC50) and in [2] (read-out: IC50) was over 100 µM each time.
On to `COC(=O)c1ccnc(C(=O)OC)c1`, for which the inhibition result in data set [12] was “inactive”.
`CCCCCCCCOC(=O)[C@H](O)CCC(=O)O` showed a pCC50 in the data set on U2OS [4] of under 2.7.
On to `O=C(O)c1ccc(O)c2ncccc12`, for which, in the data set listed under Homo sapiens [13], the inhibition entry is “Active”.
`Cc1[nH]c2ccccc2c1CCNCc1ccc(/C=C/C(=O)NO)cc1` [PANOBINOSTAT]: in data set [14], the inhibition entry was “Active”. In the data set on U2OS [15], the Activity entry is listed as “Dose-Dependent Effect”.
Turning to `COC(=O)CCC(=O)C(=O)OC`, the pCC50 in the data set on U2OS [4] is listed as under 2.
Compound `Cc1cn([C@H]2C[C@H](O)[C@@H](CO)O2)c(=O)nc1N` displayed an inhibition in the data set filed under Homo sapiens [10] of under 20%.
